Like-named read-outs stand apart in the source and are kept apart here.
What was measured:
[1] = test system: HIV-1
[2] = test system: Peripheral blood lymphocytes; test: In vitro cytotoxicity, Trypan Blue exclusion after 3 days of culture; conditions: 3 days, means of 4 counts
Experimental: Peripheral blood lymphocytes were prepared from normal blood. Cells were cultured for 3 days in complete medium [(RPMI, a commercially available so-called standard salt solution) + 10 % foetal calf serum (FCS) + […]] in the presence/absence of phytohemagglutinin (PHA). Duplicate wells were set up. Incubation was at 37°C and 5 % CO₂.
On the third day, cell viabilities were determined using the Trypan Blue exclusion test.
Those products which were water soluble, were made up at 8 mg/mℓ stocks in sterile distilled water and diluted 1:10 in RPMI medium and again diluted 1:10 directly in the wells containing the cells in complete medium. The final concentrations were thus 80 µg/mℓ. For the lower dilutions, the 8 mg/mℓ stock was diluted 1:2 or 1:4 or 1:8 in water before being diluted in the RPMI medium.
For those products which were DMSO-soluble, the stocks were made'up at 8 mg/mℓ in 100 % DMSO. This stock was diluted 1:10 in 100 % FCS and diluted 1:10 directly in the wells containing the cells in RPMI medium only. The final concentrations were thus 10 % FCS and 1 % DMSO. For the lower dilutions, the 8 mg/mℓ stock was diluted 1:2 or 1:4 or 1:8 with DMSO before the FCS dilution step.
This stock was diluted in water to yield a working stock of 2 mg/mℓ. The 2 mg/ml stock was diluted 1:20 or 1:10 or 1:5 or 1:2.5 in water and again 1:10 in the wells to give the 10, 20, 40 or 80 µg/mℓ final concentrations respectively.

[3] = test concentration 10 µg/mℓ, duration 6 days
[4] = test concentration 25 µg/mℓ, duration 6 days
[5] = test concentration 50 µg/mℓ, duration 6 days

Cc1cn([C@H]2C[C@H](N=[N+]=[N-])[C@@H](CO)O2)c(=O)[nH]c1=O [AZT, reference compound]
inhibition of P24 protein production ([1]; concentration 10 ng/mℓ, test of Table 3): 100%

CC[C@H](CC[C@@H](C)[C@H]1CC[C@H]2[C@@H]3CC=C4C[C@@H](O)CC[C@]4(C)[C@H]3CC[C@]12C)C(C)C [BSS, β-Sitosterol, reference compound]
% Viability ([2]; Cells + PHA + 1.25 µg/mℓ): 89%
% Viability ([2]; Cells + PHA + 2.5 µg/mℓ): 81%
% Viability ([2]; Cells + PHA + 5 µg/mℓ): 92%
% Viability ([2]; Cells + PHA + 10 µg/mℓ): 82%
% INHIBITION OF P24 PROTEIN PRODUCTION [1, 3]: 0%
% INHIBITION OF P24 PROTEIN PRODUCTION ([1]; test concentration 10 µg/mℓ, duration 6 days, listed as LL2): no significant inhibition

CC[C@H](CC[C@@H](C)[C@H]1CC[C@H]2[C@@H]3CC=C4C[C@@H](OS(=O)(=O)O)CC[C@]4(C)[C@H]3CC[C@]12C)C(C)C [BSS-SO₄⁻, β-Sitosteryl sulphate, reference compound]
% INHIBITION OF P24 PROTEIN PRODUCTION [1, 3]: 0%
% INHIBITION OF P24 PROTEIN PRODUCTION ([1]; test concentration 10 µg/mℓ, duration 6 days, listed as LL1): no significant inhibition

CC[C@H](CC[C@@H](C)[C@H]1CC[C@H]2[C@@H]3CC=C4C[C@@H](O[C@@H]5O[C@H](CO)[C@@H](O)[C@H](O)[C@H]5O)CC[C@]4(C)[C@H]3CC[C@]12C)C(C)C [BSSG, β-Sitosteryl β-D-glucoside, reference compound]
% INHIBITION OF P24 PROTEIN PRODUCTION [1, 3]: 0%
% INHIBITION OF P24 PROTEIN PRODUCTION ([1]; test concentration 10 µg/mℓ, duration 6 days, listed as LL4): no significant inhibition

CC(C)CCC[C@@H](C)[C@H]1CC[C@H]2[C@@H]3CC=C4C[C@@H](O)CC[C@]4(C)[C@H]3CC[C@]12C [CHO, Cholesterol, reference compound]
% INHIBITION OF P24 PROTEIN PRODUCTION [1, 3]: 3%
% INHIBITION OF P24 PROTEIN PRODUCTION ([1]; test concentration 10 µg/mℓ, duration 6 days, listed as LL5): no significant inhibition

CC(C)CCC[C@@H](C)[C@H]1CC[C@H]2[C@@H]3CC=C4C[C@@H](OS(=O)(=O)O)CC[C@]4(C)[C@H]3CC[C@]12C [CHO-SO₄⁻, Cholesteryl sulphate, reference compound]
% INHIBITION OF P24 PROTEIN PRODUCTION [1, 3]: 0%
% INHIBITION OF P24 PROTEIN PRODUCTION ([1]; test concentration 10 µg/mℓ, duration 6 days, listed as LL6): no significant inhibition

CC(C)CCC[C@@H](C)[C@H]1CC[C@H]2[C@@H]3CC=C4C[C@@H](O[C@@H]5O[C@H](COS(=O)(=O)[O-])[C@@H](OS(=O)(=O)[O-])[C@H](OS(=O)(=O)[O-])[C@H]5OS(=O)(=O)[O-])CC[C@]4(C)[C@H]3CC[C@]12C.[Na+].[Na+].[Na+].[Na+] [CHOG-(SO₄⁻)₄, Cholesteryl β-D-glucoside tetra-sulphate]
% INHIBITION OF P24 PROTEIN PRODUCTION ([1]; test concentration 12.5 µg/mℓ, duration 4 days): 19%
% INHIBITION OF P24 PROTEIN PRODUCTION ([1]; test concentration 25 µg/mℓ, duration 4 days): 18%
% INHIBITION OF P24 PROTEIN PRODUCTION ([1]; test concentration 50 µg/mℓ, duration 4 days): 49%
% INHIBITION OF P24 PROTEIN PRODUCTION ([1]; test concentration 100 µg/mℓ, duration 4 days): 86%

C[C@@H]1CC[C@@]2(OC1)O[C@H]1C[C@H]3[C@@H]4CC=C5C[C@@H](O[C@@H]6O[C@H](COS(=O)(=O)[O-])[C@@H](OS(=O)(=O)[O-])[C@H](OS(=O)(=O)[O-])[C@H]6OS(=O)(=O)[O-])CC[C@]5(C)[C@H]4CC[C@]3(C)[C@H]1[C@@H]2C.[Na+].[Na+].[Na+].[Na+] [DG-(SO₄⁻)₄, Diosgenyl β-D-glucoside tetra-sulphate]
anti-HIV-1 effect (in words) ([1]; in terms of P24 protein production, Tables 1-3): marked anti-HIV-1 effects
% INHIBITION OF P24 PROTEIN PRODUCTION [1, 4]: 60%
% INHIBITION OF P24 PROTEIN PRODUCTION [1, 5]: 100%

CCCCCCCCCCCCOS(=O)(=O)[O-].[Na+] [SODIUM n-DODECYL SULPHATE, reference compound]
% INHIBITION OF P24 PROTEIN PRODUCTION [1, 4]: 0%
% INHIBITION OF P24 PROTEIN PRODUCTION [1, 5]: 45%

CCCCCCCCO[C@@H]1O[C@H](COS(=O)(=O)O)[C@@H](OS(=O)(=O)O)[C@H](OS(=O)(=O)O)[C@H]1OS(=O)(=O)O [n-OCTYL GLUCOSIDE TETRA-SULPHATE, reference compound]
% INHIBITION OF P24 PROTEIN PRODUCTION [1, 4]: 0%
% INHIBITION OF P24 PROTEIN PRODUCTION [1, 5]: 0%
